How the values were obtained:
Experiment in all cases: relative viability (nuclei count vs DMSO), 5 days (fraction); higher = more cells survive
[1] = system: EKVX
Method in brief: (§1)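 After 5 days of treatment, lung cancer cells in 1536-well plates were fixed and stained in a single step (final 0.05% Triton X-100, 1% formaldehyde, 1 ug/ml Hoechst) and their nuclei counted on 4× images. Treatment had been applied by pin tool the day after seeding as one drug alone or as a fixed anchor-drug dose with five library-drug doses (not always all listed) in √10 steps. Relative viability is the nuclei count of treated wells divided by that of vehicle wells, and values are medians of duplicate plates.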

[2] = system: NCI-H2087
Method in brief: as §1

[3] = system: A-427
Method in brief: as §1

[4] = system: ChaGo-K-1
Method in brief: as §1

[5] = system: NCI-H1915
Method in brief: as §1

[6] = system: NCI-H596
Method in brief: as §1

[7] = system: NCI-H1734
Method in brief: as §1

[8] = system: HCC-78
Method in brief: as §1

[9] = system: HCC-366
Method in brief: as §1

[10] = system: NCI-H650
Method in brief: as §1

[11] = system: EPLC-272H
Method in brief: as §1

[12] = system: HOP-62
Method in brief: as §1

[13] = system: HCC-44
Method in brief: as §1

[14] = system: NCI-H358
Method in brief: as §1

[15] = system: NCI-H1395
Method in brief: as §1

[16] = system: LOU-NH91
Method in brief: as §1

[17] = system: NCI-H838
Method in brief: as §1

[18] = system: NCI-H3122
Method in brief: as §1

In the case of `O=C(O)CCCCC(CCSCc1ccccc1)SCc1ccccc1` (stereo not drawn) [CPI-613] + NC(=O)Nc1cc(-c2cccc(F)c2)sc1C(=O)N[C@H]1CCCNC1 [AZD7762] (partner 0.2 µM), the relative viability ([1]; first compound 5 µM) was 0.731, the relative viability ([1]; first compound 15.81 µM) was 0.646 and the relative viability ([1]; first compound 50 µM) was 0.505. The relative viability ([1]; first compound 500 µM) was 0.62, the relative viability ([2]; first compound 5 µM) was 1.4 and the relative viability ([2]; first compound 15.81 µM) was 0.87. The relative viability ([2]; first compound 50 µM) was 1.16, the relative viability ([2]; first compound 158.11 µM) was 0.446 and the relative viability ([2]; first compound 500 µM) was 0.01. For the same compound, the relative viability ([3]; first compound 5 µM) was 0.66, the relative viability ([3]; first compound 15.81 µM) was 0.642 and the relative viability ([3]; first compound 50 µM) was 0.661. The relative viability ([3]; first compound 158.11 µM) was 0.326, the relative viability ([3]; first compound 500 µM) was 0.173 and the relative viability ([4]; first compound 5 µM) was 0.827. It also gave a relative viability ([4]; first compound 15.81 µM) of 0.778, a relative viability ([4]; first compound 50 µM) of 0.85 and a relative viability ([4]; first compound 158.11 µM) of 0.536. It also gave a relative viability ([4]; first compound 500 µM) of 0.436, a relative viability ([5]; first compound 5 µM) of 0.684 and a relative viability ([5]; first compound 15.81 µM) of 0.639. The relative viability ([5]; first compound 50 µM) was 0.627, the relative viability ([5]; first compound 158.11 µM) was 0.535 and the relative viability ([5]; first compound 500 µM) was 0.303. For the same compound, the relative viability ([6]; first compound 5 µM) was 1.16, the relative viability ([6]; first compound 15.81 µM) was 0.939 and the relative viability ([6]; first compound 50 µM) was 1.11. For the same compound, the relative viability ([6]; first compound 158.11 µM) was 0.818, the relative viability ([6]; first compound 500 µM) was 0.0374 and the relative viability ([7]; first compound 5 µM) was 0.505. It also gave a relative viability ([7]; first compound 15.81 µM) of 0.482, a relative viability ([7]; first compound 50 µM) of 0.413 and a relative viability ([7]; first compound 158.11 µM) of 0.272. The relative viability ([7]; first compound 500 µM) was 0.0982, the relative viability ([8]; first compound 15.81 µM) was 0.606 and the relative viability ([8]; first compound 50 µM) was 0.674. For the same compound, the relative viability ([8]; first compound 158.11 µM) was 0.543, the relative viability ([8]; first compound 500 µM) was 0.738 and the relative viability ([9]; first compound 5 µM) was 0.256. It also gave a relative viability ([9]; first compound 15.81 µM) of 0.203, a relative viability ([9]; first compound 50 µM) of 0.282 and a relative viability ([9]; first compound 158.11 µM) of 0.138. It also gave a relative viability ([9]; first compound 500 µM) of 0.0061, a relative viability ([10]; first compound 5 µM) of 1.01 and a relative viability ([10]; first compound 15.81 µM) of 0.925. For the same compound, the relative viability ([10]; first compound 50 µM) was 1.03, the relative viability ([10]; first compound 158.11 µM) was 0.49 and the relative viability ([10]; first compound 500 µM) was 0.655. For the same compound, the relative viability ([11]; first compound 5 µM) was 0.209, the relative viability ([11]; first compound 15.81 µM) was 0.302 and the relative viability ([11]; first compound 50 µM) was 0.189. It also gave a relative viability ([11]; first compound 158.11 µM) of 0.143, a relative viability ([11]; first compound 500 µM) of 0.3 and a relative viability ([12]; first compound 5 µM) of 0.703. For the same compound, the relative viability ([12]; first compound 15.81 µM) was 0.398, the relative viability ([12]; first compound 50 µM) was 0.649 and the relative viability ([12]; first compound 158.11 µM) was 0.235. It also gave a relative viability ([12]; first compound 500 µM) of 0.216, a relative viability ([13]; first compound 5 µM) of 1.03 and a relative viability ([13]; first compound 15.81 µM) of 0.966. For the same compound, the relative viability ([13]; first compound 50 µM) was 1.01, the relative viability ([13]; first compound 158.11 µM) was 0.967 and the relative viability ([13]; first compound 500 µM) was 0.66. It also gave a relative viability ([14]; first compound 5 µM) of 0.569, a relative viability ([14]; first compound 15.81 µM) of 0.451 and a relative viability ([14]; first compound 50 µM) of 0.474. It also gave a relative viability ([14]; first compound 158.11 µM) of 0.438, a relative viability ([14]; first compound 500 µM) of 0.56 and a relative viability ([15]; first compound 5 µM) of 0.42. The relative viability ([15]; first compound 15.81 µM) was 0.403, the relative viability ([15]; first compound 50 µM) was 0.381 and the relative viability ([15]; first compound 158.11 µM) was 0.4. It also gave a relative viability ([15]; first compound 500 µM) of 0.327, a relative viability ([16]; first compound 5 µM) of 0.74 and a relative viability ([16]; first compound 15.81 µM) of 0.7. For the same compound, the relative viability ([16]; first compound 50 µM) was 0.753, the relative viability ([16]; first compound 158.11 µM) was 0.633 and the relative viability ([16]; first compound 500 µM) was 0.241. It also gave a relative viability ([17]; first compound 5 µM) of 0.977, a relative viability ([17]; first compound 15.81 µM) of 0.935 and a relative viability ([17]; first compound 50 µM) of 0.893. For the same compound, the relative viability ([17]; first compound 158.11 µM) was 0.844, the relative viability ([17]; first compound 500 µM) was 0.912 and the relative viability ([18]; first compound 5 µM) was 0.989. For the same compound, the relative viability ([18]; first compound 15.81 µM) was 0.977, the relative viability ([18]; first compound 50 µM) was 1.01 and the relative viability ([18]; first compound 158.11 µM) was 0.973. The relative viability ([18]; first compound 500 µM) was 0.842.

From the supplement of paper PMC10307832
